# According to PubChem BioAssay AID248 (DTP/NCI, 2004):
# Where “and” joins values, the source holds several entries; their conditions need not be identical. Equal values may be shown once. Inconclusive results and toxic doses are left out.
# System: L1210 leukemia ip in BDF1 mice, survival T/C
# Experiment: NCI In Vivo Anticancer Drug Screen. Data for tumor model L1210 Leukemia (intraperitoneal) in B6D2F1 (BDF1) mice
# Conditions: endpoint: mean survival time, higher = longer survival
# How it was run: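 Ratio derived from survival: compound-dosed mice over vehicle-dosed mice, all bearing a transplantable tumor.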
# [1] = dose: 100.0 mg/kg/injection, schedule: Q01DX001 (ip), vehicle: carboxymethylcellulose (CMC)
# [2] = dose: 200.0 mg/kg/injection, schedule: Q01DX001 (ip), vehicle: carboxymethylcellulose (CMC)
# [3] = dose: 100.0 mg/kg/injection, schedule: Q04DX003 (ip), vehicle: Klucel (hydroxypropylcellulose) (HPC)
# [4] = dose: 200.0 mg/kg/injection, schedule: Q04DX003 (ip), vehicle: Klucel (hydroxypropylcellulose) (HPC)
# [5] = dose: 25.0 mg/kg/injection, schedule: Q01DX009 (ip), vehicle: Klucel (hydroxypropylcellulose) (HPC)
# [6] = dose: 50.0 mg/kg/injection, schedule: Q01DX009 (ip), vehicle: Klucel (hydroxypropylcellulose) (HPC)
# [7] = dose: 100.0 mg/kg/injection, schedule: Q01DX009 (ip), vehicle: Klucel (hydroxypropylcellulose) (HPC)
smiles,measurement,setting,value
CCCCCCCCCCCCCCCC[n+]1cccc(C(=O)NCO)c1,T/C,[1],93 % of control
same,T/C,[2],102 % of control
CC(=O)C(C)=O,T/C,"dose: 100.0 mg/kg/injection, schedule: Q04DX003 (ip), vehicle: saline with Tween-80",95 % of control
same,T/C,"dose: 200.0 mg/kg/injection, schedule: Q04DX003 (ip), vehicle: saline with Tween-80",101 % of control
same,T/C,"dose: 400.0 mg/kg/injection, schedule: Q04DX003 (ip), vehicle: saline with Tween-80",106 % of control
O=c1[nH]c2ccccc2o1,T/C,"dose: 75.0 mg/kg/injection, schedule: Q01DX001 (ip), vehicle: Klucel (hydroxypropylcellulose) (HPC)",101 % of control
same,T/C,"dose: 150.0 mg/kg/injection, schedule: Q01DX001 (ip), vehicle: Klucel (hydroxypropylcellulose) (HPC)",100 % of control
same,T/C,"dose: 200.0 mg/kg/injection, schedule: Q04DX002 (ip), vehicle: saline",92 % of control
same,T/C,"dose: 300.0 mg/kg/injection, schedule: Q01DX001 (ip), vehicle: Klucel (hydroxypropylcellulose) (HPC)",103 % of control
same,T/C,"dose: 400.0 mg/kg/injection, schedule: Q04DX002 (ip), vehicle: saline",114 % of control
CC(=O)c1ccc2ccc3cccc4ccc1c2c34,T/C,"dose: 100.0 mg/kg/injection, schedule: Q04DX002 (ip), vehicle: gum acacia",96 % of control
same,T/C,"dose: 200.0 mg/kg/injection, schedule: Q04DX002 (ip), vehicle: gum acacia",96 % of control
same,T/C,"dose: 400.0 mg/kg/injection, schedule: Q04DX002 (ip), vehicle: gum acacia",93 % of control
CN(C)c1ccc(/C=N/NC(=O)CNC(=O)c2ccc(Cl)c(Cl)c2)cc1,T/C,"dose: 50.0 mg/kg/injection, schedule: Q01DX009 (ip), vehicle: saline with Tween-80",86 % of control
same,T/C,"dose: 100.0 mg/kg/injection, schedule: Q01DX009 (ip), vehicle: saline with Tween-80",94 % of control
same,T/C,"dose: 200.0 mg/kg/injection, schedule: Q01DX009 (ip), vehicle: saline with Tween-80",88 % of control
CC1=NC(C)(C)C(C)=C1C,T/C,"dose: 25.0 mg/kg/injection, schedule: Q04DX002 (ip), vehicle: saline with Tween-80",91 % of control
same,T/C,"dose: 50.0 mg/kg/injection, schedule: Q04DX002 (ip), vehicle: saline with Tween-80",94 % of control
same,T/C,"dose: 100.0 mg/kg/injection, schedule: Q04DX002 (ip), vehicle: saline with Tween-80",91 % of control
COc1c(Cl)c(C)c(Cl)c(C)c1C#CC(=O)O,T/C,"dose: 100.0 mg/kg/injection, schedule: Q01DX001 (ip), vehicle: Klucel (hydroxypropylcellulose) (HPC)",92 % of control
same,T/C,[3],95 % of control
same,T/C,"dose: 200.0 mg/kg/injection, schedule: Q01DX001 (ip), vehicle: Klucel (hydroxypropylcellulose) (HPC)",97 % of control
same,T/C,[4],92 % of control
same,T/C,"dose: 400.0 mg/kg/injection, schedule: Q01DX001 (ip), vehicle: Klucel (hydroxypropylcellulose) (HPC)",101 % of control
Cc1cnc2c(NC(=O)CCl)nn(C)c2n1,T/C,[5],98 % of control
same,T/C,[6],93 % of control
same,T/C,[7],93 % of control and 91 % of control
same,T/C,[3],91 % of control
same,T/C,[4],93 % of control
COc1cc(C(=O)Nc2ccc(C3=NCCN3)cc2)cc(C(=O)Nc2ccc(C3=NCCN3)cc2)c1,T/C,"dose: 30.0 mg/kg/injection, schedule: Q01DX Z (ip), vehicle: saline",211 % of control
same,T/C,"dose: 60.0 mg/kg/injection, schedule: Q01DX Z (ip), vehicle: saline",275 % of control
same,T/C,"dose: 60.0 mg/kg/injection, schedule: Q01DX Z (oral), vehicle: saline",114 % of control
same,T/C,"dose: 120.0 mg/kg/injection, schedule: Q01DX Z (ip), vehicle: saline",151 % of control
same,T/C,"dose: 120.0 mg/kg/injection, schedule: Q01DX Z (oral), vehicle: saline",119 % of control
same,T/C,"dose: 240.0 mg/kg/injection, schedule: Q01DX Z (oral), vehicle: saline",101 % of control
same,T/C,"dose: 480.0 mg/kg/injection, schedule: Q01DX Z (oral), vehicle: saline",100 % of control
Cc1cc(N(C)C)nc(SCc2ccc(Cl)cc2Cl)n1,T/C,"dose: 200.0 mg/kg/injection, schedule: Q01DX Z (ip), vehicle: methylcellulose (MC)",105 % of control
C=C(C)[C@H]1Cc2c(ccc3c2O[C@@H]2COc4cc(OC)c(OC)cc4[C@@H]2C3=O)O1,T/C,"dose: 0.25 mg/kg/injection, schedule: Q01DX Z (ip), vehicle: other",95 % of control
same,T/C,"dose: 0.5 mg/kg/injection, schedule: Q01DX Z (ip), vehicle: other",97 % of control
same,T/C,"dose: 0.5 mg/kg/injection, schedule: Q02DX Z (ip), vehicle: water",96 % of control
same,T/C,"dose: 0.75 mg/kg/injection, schedule: Q01DX Z (ip), vehicle: other",95 % of control
same,T/C,"dose: 0.75 mg/kg/injection, schedule: Q02DX Z (ip), vehicle: water",101 % of control
same,T/C,"dose: 1.0 mg/kg/injection, schedule: Q01DX Z (ip), vehicle: other",88 % of control
same,T/C,"dose: 1.0 mg/kg/injection, schedule: Q02DX Z (ip), vehicle: water",102 % of control
same,T/C,"dose: 2.0 mg/kg/injection, schedule: Q01DX015 (ip), vehicle: saline",97 % of control
same,T/C,"dose: 2.0 mg/kg/injection, schedule: Q02DX Z (ip), vehicle: water",107 % of control
same,T/C,"dose: 4.0 mg/kg/injection, schedule: Q01DX015 (ip), vehicle: saline",101 % of control
same,T/C,"dose: 8.0 mg/kg/injection, schedule: Q01DX015 (ip), vehicle: saline",109 % of control
same,T/C,"dose: 16.0 mg/kg/injection, schedule: Q01DX015 (ip), vehicle: saline",109 % of control
N#CCCNc1ccc(NC(=O)C(F)(F)F)cc1,T/C,"dose: 25.0 mg/kg/injection, schedule: Q01DX009 (ip), vehicle: saline",92 % of control
same,T/C,"dose: 50.0 mg/kg/injection, schedule: Q01DX009 (ip), vehicle: saline",92 % of control
same,T/C,"dose: 100.0 mg/kg/injection, schedule: Q01DX009 (ip), vehicle: saline",94 % of control
same,T/C,"dose: 100.0 mg/kg/injection, schedule: Q04DX003 (ip), vehicle: saline",87 % of control
O=C(O)c1ccc(Cl)cc1F,T/C,"dose: 100.0 mg/kg/injection, schedule: Q04DX002 (ip), vehicle: Klucel (hydroxypropylcellulose) (HPC)",97 % of control
same,T/C,"dose: 200.0 mg/kg/injection, schedule: Q04DX002 (ip), vehicle: Klucel (hydroxypropylcellulose) (HPC)",108 % of control
same,T/C,"dose: 400.0 mg/kg/injection, schedule: Q04DX002 (ip), vehicle: Klucel (hydroxypropylcellulose) (HPC)",97 % of control
O=c1[nH]cc(B(O)O)c(=O)[nH]1,T/C,"dose: 100.0 mg/kg/injection, schedule: Q01DX001 (ip), vehicle: saline",94 % of control
same,T/C,"dose: 200.0 mg/kg/injection, schedule: Q01DX001 (ip), vehicle: saline",98 % of control
same,T/C,"dose: 400.0 mg/kg/injection, schedule: Q01DX001 (ip), vehicle: saline",98 % of control
Nc1ccc(S(=O)(=O)c2ccc(N)cc2)cc1,T/C,"dose: 100.0 mg/kg/injection, schedule: Q01DX001 (ip), vehicle: other",100 % of control
same,T/C,[3],96 % of control
same,T/C,"dose: 200.0 mg/kg/injection, schedule: Q01DX001 (ip), vehicle: other",97 % of control
same,T/C,[4],101 % of control
same,T/C,"dose: 400.0 mg/kg/injection, schedule: Q01DX001 (ip), vehicle: other",107 % of control
same,T/C,"dose: 400.0 mg/kg/injection, schedule: Q04DX003 (ip), vehicle: Klucel (hydroxypropylcellulose) (HPC)",101 % of control
CS(C)=O.CS(C)=O.[Cl][Sn]([Cl])([Cl])[Cl],T/C,[5],95 % of control
same,T/C,[6],90 % of control
same,T/C,[7],106 % of control
same,T/C,[3],95 % of control
same,T/C,"dose: 150.0 mg/kg/injection, schedule: Q01DX009 (ip), vehicle: Klucel (hydroxypropylcellulose) (HPC)",104 % of control
CCOC(=O)c1ccc(NC(=O)c2ccc(F)cc2)cc1,T/C,[1],97 % of control and 105 % of control
same,T/C,"dose: 100.0 mg/kg/injection, schedule: Q01DX009 (ip), vehicle: carboxymethylcellulose (CMC)",103 % of control and 105 % of control
same,T/C,"dose: 100.0 mg/kg/injection, schedule: Q04DX002 (ip), vehicle: carboxymethylcellulose (CMC)",96 % of control and 97 % of control
same,T/C,"dose: 100.0 mg/kg/injection, schedule: Q04DX003 (ip), vehicle: carboxymethylcellulose (CMC)",94 % of control and 98 % of control
same,T/C,[2],101 % of control and 91 % of control
same,T/C,"dose: 200.0 mg/kg/injection, schedule: Q01DX009 (ip), vehicle: carboxymethylcellulose (CMC)",94 % of control and 91 % of control
same,T/C,"dose: 200.0 mg/kg/injection, schedule: Q04DX002 (ip), vehicle: carboxymethylcellulose (CMC)",97 % of control and 100 % of control
same,T/C,"dose: 200.0 mg/kg/injection, schedule: Q04DX003 (ip), vehicle: carboxymethylcellulose (CMC)",95 % of control and 91 % of control
same,T/C,"dose: 400.0 mg/kg/injection, schedule: Q01DX001 (ip), vehicle: carboxymethylcellulose (CMC)",96 % of control and 90 % of control
same,T/C,"dose: 400.0 mg/kg/injection, schedule: Q01DX009 (ip), vehicle: carboxymethylcellulose (CMC)",93 % of control and 106 % of control
same,T/C,"dose: 400.0 mg/kg/injection, schedule: Q04DX002 (ip), vehicle: carboxymethylcellulose (CMC)",92 % of control and 90 % of control
same,T/C,"dose: 400.0 mg/kg/injection, schedule: Q04DX003 (ip), vehicle: carboxymethylcellulose (CMC)",100 % of control and 91 % of control
